These results are taken from ChEMBL document CHEMBL1141944, “A synthesis of 3-deoxydihydrolycoricidine: refinement of a structurally minimum pancratistatin pharmacophore” (Bioorg Med Chem Lett, 2005).

Calls of active or inactive are those of the source. The calls are words filed in the database; no cut-off is given here.

Holding throughout (assay type): functional, cell-based
Assay [1] relates to MCF7. Description: Antitumor activity in human breast carcinoma MCF7 cell line at 1 to 10 uM.
The test system of assay [2] is Jurkat. The assay can be described thus: Antitumor activity in human Jurkat […] cell line at 1 to 10 uM.
The test system of assay [3] is MCF7. Description: Induction of apoptosis in human breast carcinoma MCF7 cell line.
Assay [4] concerns Jurkat. The assay can be described thus: Induction of apoptosis in human Jurkat […] cell line.

As for `O=C1N[C@H]2[C@H](O)C[C@@H](O)C[C@@H]2c2cc3c(cc21)OCO3`, the result with MCF7 [1], with Jurkat [2], in the assay on MCF7 [3] and in the assay on Jurkat [4] was inactive.
In the case of `O=C1N[C@H]2[C@H](O)[C@H](O)[C@@H](O)[C@H](O)[C@@H]2c2cc3c(c(O)c21)OCO3`, the result in the assay on MCF7 [3] and with Jurkat [4] was Active.
